Read-outs that look alike come from different tables or passages of the source.
How the values were obtained:
MDA-MB-231 cells [1] = assay: Foci formation assay, MDA-MB-231 cells; type: cell-based, human; details: MDA-MB-231, crystal violet
Description: (§1) MCF-7 and MDA-MB-231 cells were plated in six-well plates in 2 mL media with or without compounds and cultured. When foci had formed, MCF-7 and MDA-MB-231 cells were washed with PBS and fixed with ice-cold methanol for 10 min at 4°C. Methanol was removed and crystal violet solution was used to stain foci at room temperature for 10 min. The resultant solution was removed; immobilized MCF-7 and MDA-MB-231 cells were rinsed with distilled water and dried at room temperature.
(§2) Figure 5 Compounds 5u, 5s, and Olaparib inhibited the foci formation of MCF-7 (left panel of A) and MDA-MB-231 (left panel of B) cells. Visualization of foci formed was achieved by use of Crystal Violet. Inhibition of foci formation was also quantified (right panels of both A,B) The data are expressed as mean ± SEM. * p ≤ 0.05; ** p ≤ 0.01; *** p ≤ 0.001.

MCF-7 cells [2] = assay: Foci formation assay, MCF-7 cells; type: cell-based, human; details: MCF-7, crystal violet
Description: as §1, §2

MCF-7 cells [3] = assay: MCF-7 cell viability assay (Alamar Blue); type: cell-based, human
Description: (§3) Initially, the newly synthesized oxadiazoles were examined in cell viability studies in human breast cancer (MCF-7) cells using Alamar Blue assays.
(§4) MCF-7 and MDA-MB-231 (2000) cells were cultured in MEM or Leibovitz’s L-15 medium enriched with 2% FBS and maintained in a humidified atmosphere of 5% CO2 at 37 °C [44]. DMSO dissolved compounds were kept as a stock solution, and diluted with a cell culture medium to the desired concentration. Cancer cells (4 × 10^3) were grown overnight in 96-well plates, cultured, and treated with oxadiazoles or Olaparib at 0, 0.01, 0.1, 10, 100, and 1000 µM concentrations for 72 h. The inhibitory effect of the compounds was assessed using Alamar Blue reagent.
(§5) MCF-7 and MDA-MB-231 were treated with 5u, 5s and Olaparib (0, 0.01, 0.1, 1, 10, 100 µM) for 72 h, respectively. The viability of MCF-7 (A) and MDA-MB-231 cells (B) were analyzed using a microplate reader to measure the fluorescence of Alamar Blue reagent (excitation wavelength is between 530–560 nm and emission wavelength is 590 nm). The results are means of triplicate determinations.

MCF-7 cells [4] = assay: Western blot, PARP1 cleavage in MCF-7 cells; type: cell-based, human; details: MCF-7, 1 or 10 µM, 60 h
Description: (§6) Western blot analysis was performed to determine the levels of PARP1 cleavage and p-H2AX in MCF-7 and MDA-MB-231 cells using previously reported methods. Cells at 50–60% confluence were treated with compounds and incubated for 60 h in 2% FBS. MCF-7 and MDA-MB-231 cells were also treated with Olaparib, 5u, or 5s and the levels of cleaved PARP1 and p-H2A-X were determined using the respective antibodies.
(§7) Figure 4 The effect of compounds 5u, 5s, and Olaparib on PARP1 cleavage (upper panel of A,B) phosphorylation of H2A-X (Ser139) (lower panel of A,B), and CASPASE-3 activity (C,D) in MCF-7 and MDA-MB-231 cells. Cancer cells were treated with or without compounds 5u, 5s,and Olaparib (1 or 10 µM). The protein levels after treatment were observed by western blot analysis. GAPDH was used as input control. The data are expressed as mean ± SEM. ** p ≤ 0.01; *** p ≤ 0.001.

MDA-MB-231 cells [5] = assay: Western blot, PARP1 cleavage in MDA-MB-231 cells; type: cell-based, human; details: MDA-MB-231, 1 or 10 µM, 60 h
Description: as §6, §7

MCF-7 cells [6] = assay: 3D Matrigel growth, MCF-7 cells; type: cell-based, human; details: MCF-7, 4% Matrigel, 1 or 10 µM, Alamar Blue
Description: (§8) Cells were grown in a medium containing 4% Matrigel. Cells were treated with vehicles or compounds 5s, 5u, or Olaprib (1 or 10 µM), after colonies had formed. Compounds were added into the culture medium every 3 days for a total of 2 cycles. Alamar Blue assay was used for quantification of live cells. The data are expressed as mean ± SEM. * p ≤ 0.05; ** p ≤ 0.01; *** p ≤ 0.001.

MDA-MB-231 cells [7] = assay: Western blot, p-H2AX (Ser139) in MDA-MB-231 cells; type: cell-based, human; details: MDA-MB-231, 1 or 10 µM, 60 h
Description: as §6, §7

MDA-MB-231 cells [8] = assay: MDA-MB-231 cell viability assay (Alamar Blue); type: cell-based, human; details: MDA-MB-231, 72 h
Description: as §3, §4, §5

MDA-MB-231 cells [9] = assay: 3D Matrigel growth, MDA-MB-231 cells; type: cell-based, human; details: MDA-MB-231, 4% Matrigel, 1 or 10 µM, Alamar Blue
Description: as §8

MCF-7 cells [10] = assay: Western blot, p-H2AX (Ser139) in MCF-7 cells; type: cell-based, human; details: MCF-7, 1 or 10 µM, 60 h
Description: as §6, §7

PARP1 [11] = details: read-out: cellular EC50; cited from earlier work
PARP1 [12] = details: read-out: IC50, PARP1 activity; cited from earlier work
[13] = biological target: autophagy activating kinase 1 (ULK1); design: method as in PMID 32967366; details: cited from earlier work
[14] = biological target: T1, recombinant human PARP enzyme (PARP1) (Homo sapiens, UniProt P09874); assay: PARP activity, PARP/Apoptosis Universal Colorimetric Assay Kit; type: biochemical; details: n = 3
T1 construct: purchased R&D Systems Ltd., Abingdon, UK 4677-096-K
Description: PARP activity was measured using the PARP/Apoptosis Universal Colorimetric Assay Kit (4677-096-K, R&D Systems Ltd., Abingdon, UK). The enzyme inhibition assay uses the histone proteins immobilized 96-well plate, which measures the incorporation of ADP-ribose (biotin-tagged), followed by detection using streptavidin-conjugated horse-radish peroxidase, and finally the color development after the addition of substrate. Oxadiazoles were incubated with the recombinant human PARP enzyme prior to detection.

[15] = Homo sapiens, MCF7, 72 h, MCF-7, 72 h, Alamar Blue, Figure 2A, read-out: Log IC50, MCF-7 (converted)
[16] = Homo sapiens, MCF7, 72 h, MCF-7, 72 h, Alamar Blue, read-out: IC50, cell viability of MCF-7 cells
[17] = MCF-7, 72 h, Alamar Blue, read-out: IC50, cell viability of MCF-7 cells
[18] = Homo sapiens, Alamar Blue, Figure 2B, read-out: Log IC50, MDA-MB-231 (converted)
[19] = Homo sapiens, Alamar Blue, read-out: IC50, cell viability of MDA-MB-231 cells
[20] = Alamar Blue, read-out: IC50, cell viability of MDA-MB-231 cells

T1 sequence (P09874 whole entry): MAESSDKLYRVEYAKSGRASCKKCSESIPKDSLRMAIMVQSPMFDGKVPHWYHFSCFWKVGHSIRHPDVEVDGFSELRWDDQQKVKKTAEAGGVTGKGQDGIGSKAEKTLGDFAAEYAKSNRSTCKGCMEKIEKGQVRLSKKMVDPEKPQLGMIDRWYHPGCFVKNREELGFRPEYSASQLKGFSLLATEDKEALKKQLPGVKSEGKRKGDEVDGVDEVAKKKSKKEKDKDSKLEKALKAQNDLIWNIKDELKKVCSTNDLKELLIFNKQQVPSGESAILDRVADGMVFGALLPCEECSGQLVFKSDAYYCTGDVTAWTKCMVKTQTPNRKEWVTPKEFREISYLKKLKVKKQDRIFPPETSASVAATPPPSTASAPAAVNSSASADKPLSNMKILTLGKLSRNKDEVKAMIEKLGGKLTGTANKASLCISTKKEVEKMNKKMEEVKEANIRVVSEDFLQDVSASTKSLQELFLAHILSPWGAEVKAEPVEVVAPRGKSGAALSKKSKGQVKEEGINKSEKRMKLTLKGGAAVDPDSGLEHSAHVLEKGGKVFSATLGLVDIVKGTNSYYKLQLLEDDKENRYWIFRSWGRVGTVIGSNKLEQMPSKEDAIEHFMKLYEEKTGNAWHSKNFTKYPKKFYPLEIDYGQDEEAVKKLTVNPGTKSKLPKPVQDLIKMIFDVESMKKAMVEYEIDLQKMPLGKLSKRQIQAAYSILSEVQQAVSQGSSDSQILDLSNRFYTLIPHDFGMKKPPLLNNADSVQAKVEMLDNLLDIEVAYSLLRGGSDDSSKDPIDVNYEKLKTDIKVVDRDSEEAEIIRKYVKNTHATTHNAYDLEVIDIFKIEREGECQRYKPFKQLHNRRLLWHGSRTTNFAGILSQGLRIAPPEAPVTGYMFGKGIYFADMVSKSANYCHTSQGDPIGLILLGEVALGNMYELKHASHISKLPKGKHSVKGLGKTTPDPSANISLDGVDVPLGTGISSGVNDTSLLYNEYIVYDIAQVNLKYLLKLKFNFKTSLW

| IC50 (MCF-7 cells [3]; [15]) [µM] | IC50 (MCF-7 cells [3]; [16]) [µM] | IC50 (MCF-7 cells [3]; [17]) [µM] | IC50 (MDA-MB-231 cells [8]; [18]) [µM] | IC50 (MDA-MB-231 cells [8]; [19]) [µM] | IC50 (MDA-MB-231 cells [8]; [20]) [µM] | inhibition at 0.01 µM [14] [%] | inhibition at 0.1 µM [14] [%] | inhibition at 1 µM [14] [%] | inhibition at 10 µM [14] [%] | inhibition at 100 µM [14] [%] | Compound | foci formation (MDA-MB-231 cells [1]) | foci formation (MCF-7 cells [2]) | PARP1 cleavage (MCF-7 cells [4]) | PARP1 cleavage (MDA-MB-231 cells [5]) | 3D growth in Matrigel (MCF-7 cells [6]) | level of p-H2AX (MDA-MB-231 cells [7]) | 3D growth in Matrigel (MDA-MB-231 cells [9]) | level of p-H2AX (MCF-7 cells [10]) | also measured |
| --- | --- | --- | --- | --- | --- | --- | --- | --- | --- | --- | --- | --- | --- | --- | --- | --- | --- | --- | --- | --- |
|  |  |  |  |  |  |  |  |  |  |  | O=C(c1cc(Cc2n[nH]c(=O)c3ccccc23)ccc1F)N1CCN(C(=O)C2CC2)CC1 [Olaparib, reference compound] | decreased in a dose-dependent manner | decreased in a dose-dependent manner | Equivalent levels of cleaved PARP1 | Equivalent levels of cleaved PARP1 | inhibited the growth | equivalent increases in the level of p-H2AX | inhibited the growth | equivalent increases in the level of p-H2AX | IC50 (MCF-7 cells [3]; Homo sapiens, MCF7, 72 h, read-out: Log IC50, MCF-7, MCF-7, 72 h, Alamar Blue (converted), Figure 2A): 3.31 µM; IC50 (MCF-7 cells [3]; read-out: IC50, cell viability of MCF-7 cells, MCF-7, 72 h, Alamar Blue): 3.2 µM; IC50 (MDA-MB-231 cells [8]; Homo sapiens, read-out: IC50, cell viability of MDA-MB-231 cells): 70.2 µM; IC50 (MDA-MB-231 cells [8]; Homo sapiens, read-out: IC50, cell viability of MDA-MB-231 cells, MDA-MB-231, 72 h, Alamar Blue): 70.2 µM; IC50 (MDA-MB-231 cells [8]; Homo sapiens, read-out: Log IC50, MDA-MB-231 (converted)): 70.8 µM |
|  |  |  |  |  |  |  |  |  |  |  | NC(=O)c1cccc2[nH]c(-c3ccc(-c4nnco4)cc3)nc12 [compound 1] |  |  |  |  |  |  |  |  | EC50 (PARP1 [11]): 3.7 nM; IC50 (PARP1 [12]): 1 nM |
|  |  |  |  |  |  |  |  |  |  |  | FC(F)(F)c1cnc(Nc2ccc3c(c2)OCCO3)nc1NC1CC1 [compound 2] |  |  |  |  |  |  |  |  | IC50 [13]: 14 nM |
| 15.5 | 15.3 | 15.3 | 19.1 | 19.2 | 19.2 | 2.38 | 10.6 | 21.3 | 65 | 76.5 | COc1ccc(Cc2nnc(-c3cccc(-c4ccnc(F)c4C)c3)o2)cc1OC [compound 5s, 2-(3,4-Dimethoxybenzyl)-5-(3-(2-fluoro-3-methylpyridin-4-yl)phenyl)-1,3,4-oxadiazole] | decreased in a dose-dependent manner | decreased in a dose-dependent manner | Equivalent levels of cleaved PARP1 | Equivalent levels of cleaved PARP1 | roughly equivalent efficacy to Olaparib | equivalent increases in the level of p-H2AX | roughly equivalent efficacy to Olaparib | equivalent increases in the level of p-H2AX |  |
| 1.45 | 1.45 | 1.4 | 29.5 | 29.3 | 29.3 | 4.82 | 6.84 | 45.4 | 54.2 | 82.2 | COc1ccc(Cc2nnc(-c3cccc(-c4cccc(C=O)c4)c3)o2)cc1 [compound 5u, 3′-(5-(4-Methoxybenzyl)-1,3,4-oxadiazol-2-yl)-[1,1′-biphenyl]-3-carbaldehyde] | decreased in a dose-dependent manner | decreased in a dose-dependent manner | Equivalent levels of cleaved PARP1 | Equivalent levels of cleaved PARP1 | roughly equivalent efficacy to Olaparib | equivalent increases in the level of p-H2AX | roughly equivalent efficacy to Olaparib | equivalent increases in the level of p-H2AX |  |
